From ChEMBL document CHEMBL2407044, “Synthesis, Antiplasmodial Activity, and β-Hematin Inhibition of Hydroxypyridone-Chloroquine Hybrids” (ACS Med Chem Lett, 2013) come the findings set out here.

Molecules are shown by their SMILES. Calls of active or inactive are those of the source. The calls are words filed in the database; no cut-off is given here.

A short description of experiment [1]: Inhibition of beta-hematin formation after 60 mins relative to beta-hematin. The class given is functional.
The subject of experiment [2] is Plasmodium falciparum. Put plainly: Antiplasmodial activity against chloroquine-resistant Plasmodium falciparum K1 assessed as parasite growth inhibition after 24 hrs by [3H]-hypoxathine incorporation assay. It counts as functional, organism-based.
Experiment [3] deals with Plasmodium falciparum. Put plainly: Antiplasmodial activity against chloroquine-resistant Plasmodium falciparum W2 assessed as parasite survival after 2 days by YOYO-1 staining-based flow cytometric analysis. The class given is functional, organism-based. Particulars: W2, 48 h. (In general: Flow cytometry measures light scatter and fluorescence of single cells or particles in a stream.)

Experiment [4] has as its system Plasmodium falciparum. Put plainly: Antiplasmodial activity against chloroquine-sensitive Plasmodium falciparum 3D7 assessed as parasite growth inhibition after 24 hrs by [3H]-hypoxathine incorporation assay. It counts as functional, organism-based.
Experiment [5] concerns KB. Description: Cytotoxicity against human KB cells after 72 hrs by Alamar blue assay. The class given is cell-based. A general note: The colour change of resazurin is a common sign of viable cells or microbes.
A short description of experiment [6]: Inhibition of beta-hematin formation at 10 times parental IC50 after 60 mins. It counts as functional.

On to `CCc1c(OCc2ccccc2)c(=O)ccn1CCCCNc1ccnc2cc(Cl)ccc12`, for which the IC50 in experiment [1] amounted to 0.19 equiv; in experiment [2] (Plasmodium falciparum, K1), 130 nM; in experiment [3] it was 100 nM; in experiment [4], 4 nM; in experiment [5] (Homo sapiens, KB, 72 h) it was 9000 nM.
With `COc1cc([C@@H]2c3cc4c(cc3[C@H](O)[C@H]3COC(=O)[C@H]23)OCO4)cc(OC)c1OC` [PODOFILOX], the IC50 in experiment [5] (Homo sapiens, KB, 72 h) came out at 0.7 nM.
Regarding `CCCCCCn1ccc(=O)c(OCc2ccccc2)c1C`, in experiment [6], the inhibition entry was “inactive”.
With `Cc1c(OCc2ccccc2)c(=O)ccn1CCCNc1ccnc2cc(Cl)ccc12`, the IC50 in experiment [1] is 0.49 equiv; in experiment [2] (Plasmodium falciparum, K1) it was 3570 nM; in experiment [3], 2150 nM; in experiment [4], 280 nM; in experiment [5] (Homo sapiens, KB, 72 h), 67000 nM.
The corresponding values for `CCc1c(OCc2ccccc2)c(=O)ccn1CCCNc1ccnc2cc(Cl)ccc12` are 0.41 equiv, 71600 nM, 2320 nM, 120 nM and 15000 nM.
The corresponding values for `Cc1c(O)c(=O)ccn1CCCCCCNc1ccnc2cc(Cl)ccc12` are 0.18 equiv, 160 nM, 70 nM, 390 nM and 4000 nM.
The corresponding values for `COc1c(C)n(CCCCNc2ccnc3cc(Cl)ccc23)ccc1=O` are 0.75 equiv, 220 nM, 760 nM, 70 nM and 27000 nM.
Take `Cc1c(O)c(=O)ccn1CCCCNc1ccnc2cc(Cl)ccc12`: the IC50 was 0.66 equiv in experiment [1]; 70 nM in experiment [2] (Plasmodium falciparum, K1); 80 nM in experiment [3]; 30 nM in experiment [4]; 185000 nM in experiment [5] (Homo sapiens, KB, 72 h).
For the molecule `Cc1c(OCc2ccccc2)c(=O)ccn1C`, in experiment [6], the inhibition entry was “inactive”.
On the same count and under the same terms, with `CCCCCCCCn1ccc(=O)c(OCc2ccccc2)c1C` the entry was “inactive”.
As for `COc1c(C)n(CCCCCCNc2ccnc3cc(Cl)ccc23)ccc1=O`, the IC50 came out at 1.07 equiv in experiment [1]; 2800 nM in experiment [2] (Plasmodium falciparum, K1); 90 nM in experiment [3]; 130 nM in experiment [4]; 47000 nM in experiment [5] (Homo sapiens, KB, 72 h).
With `CCc1c(O)c(=O)ccn1CCCCNc1ccnc2cc(Cl)ccc12`, the IC50 in experiment [1] was 0.98 equiv; in experiment [2] (Plasmodium falciparum, K1), 270 nM; in experiment [3], 160 nM; in experiment [4] it was 50 nM; in experiment [5] (Homo sapiens, KB, 72 h) it was 76000 nM.
Regarding `Cc1c(OCc2ccccc2)c(=O)ccn1C(C)C`, the inhibition result in experiment [6] is “inactive”.
Take `CCc1c(OC)c(=O)ccn1CCCCNc1ccnc2cc(Cl)ccc12`: the IC50 turned out to be 1.71 equiv in experiment [1] and 210 nM in experiment [3].
For `Cc1c(OCc2ccccc2)c(=O)ccn1CCNc1ccnc2cc(Cl)ccc12`, the IC50 in experiment [1] turned out to be 0.93 equiv; in experiment [2] (Plasmodium falciparum, K1), 3150 nM; in experiment [3] it was 9930 nM; in experiment [4], 490 nM; in experiment [5] (Homo sapiens, KB, 72 h), 54000 nM.
In the case of `CCCCCCCCn1ccc(=O)c(O)c1C`, the IC50 in experiment [2] (Plasmodium falciparum, K1) amounted to 1800 nM; in experiment [4] it was 2380 nM.
Consider `Cc1c(O)c(=O)ccn1CCNc1ccnc2cc(Cl)ccc12`, for which the IC50 in experiment [1] was 2.9 equiv; in experiment [2] (Plasmodium falciparum, K1), 32600 nM; in experiment [3], 280 nM; in experiment [4], 10800 nM.
With `CCc1c(O)c(=O)ccn1CCCNc1ccnc2cc(Cl)ccc12`, the IC50 stood at 1.3 equiv in experiment [1]; 380 nM in experiment [2] (Plasmodium falciparum, K1); 540 nM in experiment [3]; 120 nM in experiment [4]; 55000 nM in experiment [5] (Homo sapiens, KB, 72 h).
Consider `CCN(CC)CCCC(C)Nc1ccnc2cc(Cl)ccc12` (stereo not drawn) [CHLOROQUINE], for which the IC50 in experiment [1] came to 1.9 equiv; in experiment [5] (Homo sapiens, KB, 72 h), 34000 nM.
`CCc1c(OCc2ccccc2)c(=O)ccn1CCCCCCNc1ccnc2cc(Cl)ccc12` [listing 1 of 2 here]: the IC50 in experiment [1] turned out to be 0.16 equiv; in experiment [2], 80 nM; in experiment [3] it was 20 nM; in experiment [5] (kb), 4000 nM.
`CCc1c(OC)c(=O)ccn1CCCCCCNc1ccnc2cc(Cl)ccc12`: the values for the IC50 in experiment [1] and in experiment [3] were 0.47 equiv and 220 nM, respectively.
As for `CCc1c(OCc2ccccc2)c(=O)ccn1CCNc1ccnc2cc(Cl)ccc12`, the IC50 in experiment [1] was determined as 0.5 equiv; in experiment [2] (Plasmodium falciparum, K1) it was 8430 nM; in experiment [3], 2590 nM; in experiment [4], 950 nM; in experiment [5] (Homo sapiens, KB, 72 h), 51000 nM.
Regarding `CCc1c(OCc2ccccc2)c(=O)ccn1CCCCCCNc1ccnc2cc(Cl)ccc12` [listing 2 of 2 here], the IC50 was found to be 100 nM in experiment [2] (Plasmodium falciparum, K1); 10 nM in experiment [4]; 7000 nM in experiment [5] (Homo sapiens, KB, 72 h).
`CCc1c(O)c(=O)ccn1CCNc1ccnc2cc(Cl)ccc12`: the IC50 in experiment [1] is 1.1 equiv; in experiment [2] (Plasmodium falciparum, K1) it was 890 nM; in experiment [3] it was 1240 nM; in experiment [4], 400 nM.
On to `CCc1c(O)c(=O)ccn1CCCCCCNc1ccnc2cc(Cl)ccc12`, for which the IC50 in experiment [1] turned out to be 0.49 equiv; in experiment [2] (Plasmodium falciparum, K1), 610 nM; in experiment [3] it was 90 nM; in experiment [4] it was 80 nM; in experiment [5] (Homo sapiens, KB, 72 h), 44000 nM.
The corresponding values for `Cc1c(OCc2ccccc2)c(=O)ccn1CCCCCCNc1ccnc2cc(Cl)ccc12` are 0.25 equiv, 4380 nM, 390 nM, 35700 nM and 158000 nM.
For the molecule `Cc1c(OCc2ccccc2)c(=O)ccn1CCCCNc1ccnc2cc(Cl)ccc12`, the IC50 was 0.27 equiv in experiment [1]; 2200 nM in experiment [2] (Plasmodium falciparum, K1); 1120 nM in experiment [3]; 50 nM in experiment [4]; 119000 nM in experiment [5] (Homo sapiens, KB, 72 h).
